From patent EP0728482A2, “Use of hcp specific compounds to enhance erythropoiesis” (SMITHKLINE BEECHAM CORPORATION, priority 1995, dated 1996)

Biological target: T1, human p85 SH2 domain (Homo sapiens, UniProt P27986)
T1 construct: made in house; host or cells: E. coli (pGEX-3X)
Experiment: ELISA-based SH2 domain / pY peptide binding assay, p85 SH2 domain
Experimental: The inhibitory activity of compounds at the different human SH2 domains was determined in vitro using SH2 domains expressed as fusion proteins in E. coli. The SH2 domains used herein were the human forms of the src SH2 domain, Grb2 SH2 domain, lck SH2 domain, fyn SH2 domain, SH-PTP2 SH2 domain, p85 SH2 domain and hcp SH2 domain.
Fusion proteins having the structure GST-X-SH2 were prepared as described in the GST gene fusion kit system available from Pharmacia (New Jersey). GST is the tagging sequence glutathione s-transferase epitope (SEQ ID NO: 8) for fyn, Grb2 and SH-PTP2 and is the tagging sequence glutathione s-transferase epitope (SEQ ID NO: 9) for p85. SH2 refers to the SH2 domains of fyn, Grb2, p85 and SH-PTP2 which were expressed and purified using glutathione Sepharose 4B (Pharmacia) according to "Current Protocols in Molecular Biology", ed. FM Ausubel et al., pub. John Wiley and Sons, Inc., (1995), p 16.7.1. X is an appropriate linker, preferably of 6 to 21 base pairs, used to keep the SH2 construct in frame and complement cloning. As such, the sequence of X is not critical. One skilled in the art can readily construct the appropriate linker. The DNA sequence encoding each GST-X-SH2 fusion protein was designed such that the indicated restriction sites (BamH1 and EcoRI) flank the SH2 region. […]

T1 sequence (P27986 321-440): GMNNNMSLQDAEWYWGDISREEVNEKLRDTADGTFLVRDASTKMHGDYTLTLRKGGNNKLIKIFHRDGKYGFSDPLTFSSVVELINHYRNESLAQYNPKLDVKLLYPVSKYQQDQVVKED

## CCCCCCNC(=O)[C@H]1CC[C@H](CNC(=O)c2ccc(C(=O)c3ccc(C(=O)O)cc3)cc2)CC1 [Compound 6, 4-carboxy-benzophenone-4-carboxamido-trans-4-methyl-cyclohexyl-N-hexyl carboxamide]
Ki calculated from IC50 with the expanded equation
  Ki: > 1000 µM
Inhibition of binding of 0.1 uM biotinylated pY peptide to SH2 domain fusion protein
  IC50: > 300 µM
